Data reported in paper PMC4631608 (Journal of structural and functional genomics, 2015).

Target: M. tuberculosis Rv1496 (Mycobacterium tuberculosis, UniProt P9WPZ1)
Sequence (P9WPZ1 3-336): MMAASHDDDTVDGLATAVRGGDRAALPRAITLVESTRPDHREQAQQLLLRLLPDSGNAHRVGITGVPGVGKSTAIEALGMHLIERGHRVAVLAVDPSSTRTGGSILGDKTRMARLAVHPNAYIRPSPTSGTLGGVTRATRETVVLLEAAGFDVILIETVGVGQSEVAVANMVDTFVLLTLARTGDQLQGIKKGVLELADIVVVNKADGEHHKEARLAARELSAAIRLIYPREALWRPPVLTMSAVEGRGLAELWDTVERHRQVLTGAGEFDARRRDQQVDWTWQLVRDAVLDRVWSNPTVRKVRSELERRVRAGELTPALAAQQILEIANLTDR

Question: With `Nc1nc2c(ncn2[C@@H]2O[C@H](COP(=O)(O)OP(=O)(O)O)[C@@H](O)[C@H]2O)c(=O)[nH]1` [GDP] as the molecule, how does the “X-ray co-crystal structure, 2.45 Å” value read?
Answer: Its value is “Rv1496 binds GDP via hydrogen bonds, one salt bridge, and van der Waals interactions”.
